The results in this text go back to US20250091982A1, “Pharmaceutical Composition, Methods of Use Thereof for Treating Cocaine Addiction, and Novel Use of Hausp K444R Point Mutant Mouse” (PHARWAR BIOTECHNOLOGY, INC. PTE. LTD., priority 2022, published 2025).

In one test the target is T1, SIAH1 (Homo sapiens, UniProt Q8IUQ4).
T1 sequence (Q8IUQ4 1-282): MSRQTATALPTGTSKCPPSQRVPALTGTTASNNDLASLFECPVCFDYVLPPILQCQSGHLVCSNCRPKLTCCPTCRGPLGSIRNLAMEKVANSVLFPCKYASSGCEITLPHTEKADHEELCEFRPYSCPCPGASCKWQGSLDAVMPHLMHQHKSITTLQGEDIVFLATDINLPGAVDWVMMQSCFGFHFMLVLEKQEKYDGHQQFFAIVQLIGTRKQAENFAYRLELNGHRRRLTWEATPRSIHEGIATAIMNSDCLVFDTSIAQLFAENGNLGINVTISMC
As to the kind of experiment: E3-ligase auto ubiquitination assay (K48-linked polyubiquitination of HAUSP mediated by SIAH1). Particulars: 37° C., 1 hour, Western blot with Ub-K48 antibody, compared to vehicle; FIG. 14A, 14B. In kind it is biochemical. How it is done:
SIAH1 mediates the K48-linked polyubiquitination of HAUSP. Therefore, for the ubiquitination assay, SIAH1 was incubated in the solution (0.25 mg/1 ml, total 100 μg) containing 20 mM Tris-HCl buffer (pH 8.0), 100 mM NaCl, 1 mM DTT and 40% glycerol and HAUSP (50 μg) was in 50 mM HEPES pH 7.5, 100 mM NaCl, 1 mM TCEP (tris (2-carboxyethyl) phosphine) buffer. […] The E3-ligase auto ubiquitination assay was performed by E3 Ligase Auto-Ubiquitilylation Assay Kit (Abcam, ab139469, UK).
(In general: In western blotting, separated proteins are transferred to a membrane and probed.)

In test [1] the test system is HAUSP levels in SH-SY5Y cells. Kind of test: Western blot of HAUSP in cocaine-treated SH-SY5Y cells. Particulars: cocaine 200 μM with inhibitor, 24 hr; for HAUSP levels decreased by cocaine in SH-SY5Y cells (western blot): FIG. 14C; for relative protein expression ratios of HAUSP normalized with β-actin: quantified with ImageJ, FIG. 14D.

In the case of `Cc1ccccc1C(=O)OCCOC(=O)c1ccc(Cl)cc1N` [Compound 1-1, 2-((2-Methylbenzoyl)oxy) ethyl 2-amino-4-chlorobenzoate], on SIAH1, the “inhibition of K48-linked polyubiquitination of HAUSP mediated by SIAH1” value (“inhibition” for short) was “can inhibit”. In test [1], the “HAUSP levels decreased by cocaine in SH-SY5Y cells (western blot)” value (“HAUSP levels decreased by cocaine” for short) was “can restore” and the “relative protein expression ratios of HAUSP normalized with β-actin” value was “can restore”.

As for `COCCNC(=O)c1ccc(Cl)cc1NS(=O)(=O)c1ccccc1C` [Compound 2-1, 4-Chloro-N-(2-methoxyethyl)-2-((2-methylphenyl)sulfonamido)benzamide], the “inhibition” value against SIAH1 is “can inhibit”. Moreover, in test [1], the “HAUSP levels decreased by cocaine” value is on record as “can restore” and the “relative protein expression ratios of HAUSP normalized with β-actin” value is given as “can restore”.

As for `COCCNC(=O)c1ccc(Cl)cc1NS(=O)(=O)c1c(C)cc(C)cc1C` [Compound 2-4, 4-Chloro-N-(2-methoxyethyl)-2-((2,4,6-trimethylphenyl)sulfonamido)benzamide], the “inhibition” value against SIAH1 was “can inhibit”. In test [1], the “HAUSP levels decreased by cocaine” value was “can restore” and the “relative protein expression ratios of HAUSP normalized with β-actin” value is given as “can restore”.

Regarding `COCCNC(=O)c1ccc(Cl)cc1NC(=O)c1c(F)cccc1F` [Compound 2-5, 4-Chloro-N-(2-methoxyethyl)-2-(2,6-difluorobenzamido)benzamide], on SIAH1, the “inhibition” value is on record as “can inhibit”. Further, in test [1], the “HAUSP levels decreased by cocaine” value was “can restore” and the “relative protein expression ratios of HAUSP normalized with β-actin” value is recorded as “can restore”.

As to `COCCNC(=O)c1ccccc1NS(=O)(=O)c1ccccc1C` [Compound 3-1, N-(2-Methoxyethyl)-2-((2-methylphenyl)sulfonamido)benzamide], on SIAH1, the “inhibition” value is recorded as “can inhibit”. Also, in test [1], the “HAUSP levels decreased by cocaine” value is “can restore” and the “relative protein expression ratios of HAUSP normalized with β-actin” value is on record as “can restore”.

With `COCCNC(=O)c1ccccc1NC(=O)c1ccccc1C` [Compound 3-2, N-(2-Methoxyethyl)-2-(2-methylbenzamido)benzamide], the “inhibition” value against SIAH1 is reported as “can inhibit”. In addition, in test [1], the “HAUSP levels decreased by cocaine” value is recorded as “can restore” and the “relative protein expression ratios of HAUSP normalized with β-actin” value is given as “can restore”.

As for `COCCNC(=O)c1ccc(Br)cc1NC(=O)c1ccccc1C` [Compound 4-1, 4-Bromo-N-(2-methoxyethyl)-2-(2-methylbenzamido)benzamide], the “inhibition” value on SIAH1 is reported as “can inhibit”. In test [1], the “HAUSP levels decreased by cocaine” value is listed as “can restore” and the “relative protein expression ratios of HAUSP normalized with β-actin” value was “can restore”.

On to `COCCNC(=O)c1ccc(Br)cc1NC(=O)c1c(C)cc(C)cc1C` [Compound 4-2, N-(5-Bromo-2-((2-methoxyethyl)carbamoyl)phenyl)-2,4,6-trimethylbenzamide], for which, at SIAH1, the “inhibition” value is “can inhibit”. Moreover, in test [1], the “HAUSP levels decreased by cocaine” value is reported as “can restore” and the “relative protein expression ratios of HAUSP normalized with β-actin” value is recorded as “can restore”.

As to `COCCNC(=O)c1ccc(C)cc1NC(=O)c1c(C)cc(C)cc1C` [Compound 5-2, N-(2-((2-Methoxyethyl)carbamoyl)-5-methylphenyl)-2,4,6-trimethylbenzamide], at SIAH1, the “inhibition” value is “can inhibit”. Further, in test [1], the “HAUSP levels decreased by cocaine” value is “can restore” and the “relative protein expression ratios of HAUSP normalized with β-actin” value is recorded as “can restore”.

As for `CCOCCNC(=O)c1ccc(Cl)cc1NC(=O)c1ccccc1C` [Compound 6-1, 4-Chloro-N-(2-ethoxyethyl)-2-(2-methylbenzamido)benzamide], on SIAH1, the “inhibition” value is “can inhibit”. In test [1], the “HAUSP levels decreased by cocaine” value is given as “can restore” and the “relative protein expression ratios of HAUSP normalized with β-actin” value is given as “can restore”.

Turning to `CCCOCCNC(=O)c1ccc(Cl)cc1NC(=O)c1ccccc1C` [Compound 7-1, 4-Chloro-N-(2-propoxyethyl)-2-(2-methylbenzamido)benzamide], the “inhibition” value at SIAH1 is “can inhibit”. In test [1], the “HAUSP levels decreased by cocaine” value is listed as “can restore” and the “relative protein expression ratios of HAUSP normalized with β-actin” value is “can restore”.

As to `CC(C)(C)C(=O)Oc1ccc(S(=O)(=O)Nc2ccccc2C(=O)NCCO)cc1` [Compound 12-1], the “inhibition” value against SIAH1 is listed as “can inhibit”. For the same molecule, in test [1], the “HAUSP levels decreased by cocaine” value is on record as “can restore” and the “relative protein expression ratios of HAUSP normalized with β-actin” value was “can restore”.

In the case of `Cc1ccccc1S(=O)(=O)Nc1ccccc1C(=O)NCCO` [Compound 12-2, N-(2-hydroxyethyl)-2-(2-methylphenylsulfonamido)benzamide], the “inhibition” value against SIAH1 was “can inhibit”. In addition, in test [1], the “HAUSP levels decreased by cocaine” value is “can restore” and the “relative protein expression ratios of HAUSP normalized with β-actin” value is “can restore”.
